Test results from patent US7368423B1, “Composition and method for treating chronic allograft rejection” (priority 2001, dated 2008).

How the values were obtained:
[1] = test system: ACI to LEW rat cardiac transplant; type: in vivo; conditions: given with CSA
Excerpt: An ACI-LEW rat cardiac transplant model was used to test the ability of 2-CDA to suppress allograft chronic rejection.
Animals were sacrificed at 90 days post transplant. Heart grafts were subjected to evaluation which included the quantification of the extent to which the following pathologies typically associated with chronic allograft rejection were present in the allograft models: myocardial Infiltration (MI), myocardial fibrosis (MF), and intimal proliferation (IP).
Each of these pathologies is associated with the vascular disease of transplant arteriosclerosis.

[2] = test system: allogeneic small bowel transplantation; conditions: rats sacrificed ten days after small bowel transplantation; cited from earlier work
[3] = test system: heart allografts; conditions: cited from earlier work

Nc1nc(Cl)nc2c1ncn2[C@H]1C[C@H](O)[C@@H](CO)O1 [2-CDA, 2-chlorodeoxyadenosine]
most effective dose of 2-CDA [1]: 1 mg per kilogram of recipient body mass per week | graft rejection (histology) [2]: moderate to severe rejection | effect on allograft rejection ([3]; 2-CDA alone): no effect | rejection of heart allografts (histology) ([3]; rats, 10 days post transplant): severe rejection
